Values quoted from earlier work, collected in paper PMC7321301, “Characteristics of New Peptides GQLGEHGGAGMG, GEHGGAGMGGGQFQPV, EQGFLPGPEESGR, RLARAGLAQ, YGNPVGGVGH, and GNPVGGVGHGTTGT as Inhibitors of Enzymes Involved in Metabolic Syndrome and Antimicrobial Potential” (Molecules, 2020).
Like-named read-outs stand apart in the source and are kept apart here. No end group written: not given here.

What was measured:
[1] = test system: ACE; conditions: cited from earlier work
[2] = test system: α-amylase; conditions: no reference given; cited from earlier work

For GKPVAVPA [GA-8], the “ACE inhibitory activity” value [1] is given as “exhibited ACE inhibitory activity”.
In the case of TTFHTSGY, the “type of ACE inhibition” value ([1]; inhibition kinetic analysis) is listed as “competitive inhibitor”.
For GKHVAVHAR [GHA-8], the “ACE inhibitory activity” value [1] is listed as “exhibited ACE inhibitory activity”.
For “Thα1: peptide Thα1, ACE inhibitory, from another study (SDAAVDTSSEITTKDLKEKKEVVEEAEN; ends and bridges not checked; UniProt P06454 2-29, looked up)”, the “ACE inhibitory IC50” value [1] is listed as 2.5 mg/L.
For `C[C@H](CS)C(=O)N1CCC[C@H]1C(=O)O` [Captropril], the “type of ACE inhibition” value [1] is listed as “competitive inhibitor”.
In the case of AFKDEDTEEVPFR, the “ACE inhibitory IC50” value [1] is listed as 127 mg/L.
In the case of `C[C@H]1O[C@H](O[C@H]2[C@H](O)[C@@H](O)[C@@H](O[C@H]3[C@H](O)[C@@H](O)C(O)O[C@@H]3CO)O[C@@H]2CO)[C@H](O)[C@@H](O)[C@@H]1N[C@H]1C=C(CO)[C@@H](O)[C@H](O)[C@H]1O` (stereo partly shown) [acarbose], the “type of α-amylase inhibition” value [2] is listed as “competitive inhibition”.
